Source: US5686441A, “Penam sulfones as β-lactamase inhibitors” (Syphar Laboratories, Inc., priority 1995, dated 1997)
pIC50: −log10 of the molar value. In brackets after ≈: the same amount, converted by molar mass. Counter-ions that a name gives are not always drawn. Like-named read-outs stand apart in the source and are kept apart here.

Assays:
E. coli TEM 3 = experiment: MIC, agar dilution method; details: Escherichia coli, TEM3, 18 h
E. cloacae E. 40009 = experiment: MIC, agar dilution method; details: Enterobacter cloacae, E.40009, 18 h, read-out: MIC Ceftazidime (Alone)
E. aerogenes 41004 = experiment: MIC, agar dilution method; details: Klebsiella aerogenes, 41004, 18 h
E. cloacae P99 = experiment: MIC, agar dilution method; details: Enterobacter cloacae, P99, 18 h
M. morganii 36014 = experiment: MIC, agar dilution method; details: Morganella morganii, 36014, 18 h
E. aerogenes 41003 = experiment: MIC, agar dilution method; details: Klebsiella aerogenes, 41003, 18 h, read-out: MIC Ceftazidime (Alone)
M. morganii 36010 = experiment: MIC, agar dilution method; details: Morganella morganii, 36010, 18 h
K. pneumoniae CTX1 = experiment: MIC, agar dilution method; details: Klebsiella pneumoniae, CTX1, 18 h
E. aerogenes 41006 = experiment: MIC, agar dilution method; details: Klebsiella aerogenes, 41006, 18 h, read-out: MIC Ceftazidime (Alone)
E. coli TEM 7 = experiment: MIC, agar dilution method; details: Escherichia coli, TEM7, 18 h
E. cloacae 40011 = experiment: MIC, agar dilution method; details: Enterobacter cloacae, 40011, 18 h
P. aeruginosa 46220 DR-2 = experiment: MIC, agar dilution method; details: Pseudomonas aeruginosa, 46220DR2, 18 h, read-out: MIC Ceftazidime (Alone)
P. aeruginosa L 46003 = experiment: MIC, agar dilution method; details: Pseudomonas aeruginosa, L46003, 18 h, read-out: MIC Ceftazidime (Alone)
TEM-1 = target: T1, TEM-1 (Escherichia coli, UniProt P62593); experiment: β-lactamase inhibitory activity, spectrophotometric rate assay with nitrocefin; type: biochemical; details: TEM-1 isolated from E. coli; nitrocefin substrate; read-out: 50% Inhibitory conc. TEM-1
T1 construct: TEM-1 (isolated from E. coli); endogenous in cells; host or cells: E. coli (enzyme isolated from the bacterium)
Procedure: (§1) The inhibitory activities of present compounds against TEM-1 (isolated from E. coli), CTX-1 (isolated from K. pneumoniae), cephalosporinase (isolated from P. aeruginoase 46012) was measured by spectrophotometric rate assay using […] and using nitrocefin as a substrate [J. Antimicrob. Chemother., 28, pp. 775-776 (1991)].

cephalosporinase = target: T2, cephalosporinase (Pseudomonas aeruginosa, UniProt P24735); experiment: as above; type: biochemical; details: cephalosporinase isolated from P. aeruginoase 46012; nitrocefin substrate; read-out: 50% Inhibitory conc. Cephalosporinase
T2 construct: nitrocefin spectrophotometric assay
Procedure: as §1

C. freundii 2046E = experiment: MIC, agar dilution method; details: Citrobacter freundii, 18 h, read-out: MIC Piperacillin Alone
E. coli OXA 3 = experiment: MIC, agar dilution method; details: Escherichia coli, OXA3, 18 h, read-out: MIC Piperacillin Alone
S. aureus 54K = experiment: MIC, agar dilution method; details: Staphylococcus aureus, 18 h, read-out: MIC Piperacillin Alone
E. coli SHV 1 = experiment: MIC, agar dilution method; details: Escherichia coli, SHV1, 18 h, read-out: MIC Piperacillin Alone
E. cloacae E. 4009 = experiment: MIC, agar dilution method; details: Enterobacter cloacae, E.4009, 18 h, read-out: MIC Piperacillin Alone
E. aerogenes = experiment: MIC, agar dilution method; details: Klebsiella aerogenes, 18 h, read-out: MIC Piperacillin Alone
P. aeruginosa L 46007 = experiment: MIC, agar dilution method; details: Pseudomonas aeruginosa, L46007, 18 h, read-out: MIC Piperacillin Alone
P. vulgaris CT106 = experiment: MIC, agar dilution method; details: Proteus vulgaris, CT106, 18 h, read-out: MIC Piperacillin Alone
E. coli OXA 1 = experiment: MIC, agar dilution method; details: Escherichia coli, OXA1, 18 h, read-out: MIC Piperacillin Alone
K. pneumoniae 336L = experiment: MIC, agar dilution method; details: Klebsiella pneumoniae, 18 h, read-out: MIC Piperacillin Alone
S. aureus 1628 = experiment: MIC, agar dilution method; details: Staphylococcus aureus, 1628, 18 h, read-out: MIC Piperacillin Alone
S. marcescens 200L = experiment: MIC, agar dilution method; details: Serratia marcescens, 18 h, read-out: MIC Piperacillin Alone
A. calcoaceticus 553L = experiment: MIC, agar dilution method; details: Acinetobacter calcoaceticus, 18 h, read-out: MIC Piperacillin Alone
E. cloacae 40015 = experiment: MIC, agar dilution method; details: Enterobacter cloacae, 40015, 18 h, read-out: MIC Piperacillin Alone
E. coli TEM 1 = experiment: MIC, agar dilution method; details: Escherichia coli, TEM1, 18 h, read-out: MIC Piperacillin Alone
S. aureus 80K = experiment: MIC, agar dilution method; details: Staphylococcus aureus, 18 h, read-out: MIC Piperacillin Alone
[1] = read-out: MIC Ceftazidime (Alone)
[2] = read-out: MIC Piperacillin Alone

T2 sequence (P24735 27-397): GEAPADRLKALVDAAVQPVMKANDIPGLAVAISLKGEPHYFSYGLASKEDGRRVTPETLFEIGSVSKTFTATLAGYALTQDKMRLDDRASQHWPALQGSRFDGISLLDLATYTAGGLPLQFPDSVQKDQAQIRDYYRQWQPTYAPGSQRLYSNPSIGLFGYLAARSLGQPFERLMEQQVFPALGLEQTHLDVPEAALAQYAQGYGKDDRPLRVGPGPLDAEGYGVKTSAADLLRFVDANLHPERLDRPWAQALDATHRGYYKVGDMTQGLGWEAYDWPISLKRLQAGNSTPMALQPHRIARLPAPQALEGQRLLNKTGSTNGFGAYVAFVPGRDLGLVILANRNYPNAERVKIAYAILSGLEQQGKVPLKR
T1 sequence (P62593 24-286 limits assumed): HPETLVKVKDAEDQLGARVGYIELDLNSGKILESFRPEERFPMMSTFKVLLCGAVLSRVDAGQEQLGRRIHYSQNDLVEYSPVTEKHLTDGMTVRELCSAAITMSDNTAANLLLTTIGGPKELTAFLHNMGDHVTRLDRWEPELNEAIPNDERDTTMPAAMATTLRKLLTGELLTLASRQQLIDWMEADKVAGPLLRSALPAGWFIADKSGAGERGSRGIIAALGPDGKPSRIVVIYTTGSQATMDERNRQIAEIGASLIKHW

`CC(C)(O/N=C(\C(=O)N[C@@H]1C(=O)N2C(C(=O)[O-])=C(C[n+]3ccccc3)CS[C@H]12)c1csc(N)n1)C(=O)O` [Ceftazidime, ceftazidime] was tested, and the MIC (E. coli TEM 3; [1]) was 25 µg/mL (≈ 45.7 µM), the MIC (E. cloacae E. 40009) was 100 µg/mL (≈ 183 µM) and the MIC (E. aerogenes 41004; [1]) was 25 µg/mL (≈ 45.7 µM). It also gave an MIC (E. cloacae P99; [1]) of 100 µg/mL (≈ 183 µM), an MIC (M. morganii 36014; [1]) of 25 µg/mL (≈ 45.7 µM) and an MIC (E. aerogenes 41003) of 25 µg/mL (≈ 45.7 µM). The MIC (M. morganii 36010; [1]) was 200 µg/mL (≈ 366 µM), the MIC (K. pneumoniae CTX1; [1]) was 100 µg/mL (≈ 183 µM) and the MIC (E. aerogenes 41006) was 100 µg/mL (≈ 183 µM). For the same compound, the MIC (E. coli TEM 7; [1]) was 25 µg/mL (≈ 45.7 µM), the MIC (E. cloacae 40011; [1]) was 50 µg/mL (≈ 91.5 µM) and the MIC (P. aeruginosa 46220 DR-2) was 25 µg/mL (≈ 45.7 µM). For the same compound, the MIC (P. aeruginosa L 46003) was 200 µg/mL (≈ 366 µM).

In the case of `C[C@]1(C=NOCC(=O)O)[C@H](C(=O)O)N2C(=O)C[C@H]2S1(=O)=O` [Compound 28, (2S, 3R, 5R)-3-formyl-3-methyl-7-oxo-4-thia-1-azabicyclo[3.2.0]heptane-2-carboxylicacid, 3^1-[O-(carboxymethyl)oxime], disodium salt, 4,4-dioxide], the pIC50 (TEM-1) was 8.32 and the pIC50 (cephalosporinase) was 6.00.

With `CON=C[C@@]1(C)[C@H](C(=O)O)N2C(=O)C[C@H]2S1(=O)=O` [Compound 3, sodium (2S, 3R, 5R)-3-formyl-3-methyl-7-oxo-4-thia-1-azabicyclo[3.2.0]heptane-2-carboxylate, 3^1-(O-methyloxime), 4,4-dioxide] the pIC50 (TEM-1) was 6.52 and the pIC50 (cephalosporinase) was 5.72.

`CCCON=C[C@@]1(C)[C@H](C(=O)O)N2C(=O)C[C@H]2S1(=O)=O` [Compound 8, sodium (2S, 3R, 5R)-3-formyl-3-methyl-7-oxo-4-thia-1-azabicyclo[3.2.0]heptane-2-carboxylate, 3^1-(O-propyloxime), 4,4-dioxide] was tested, and the pIC50 (TEM-1) was 7.00 and the pIC50 (cephalosporinase) was 6.00.

`CCON=C[C@@]1(C)[C@H](C(=O)O)N2C(=O)C[C@H]2S1(=O)=O` [Compound 10, sodium (2S, 3R, 5R]-3-formyl-3-methyl-7-oxo-4-thia-1-azabicyclo[3.2.0]heptane-2-carboxylate, 3^1-(O-ethyloxime), 4,4-dioxide] gave a pIC50 (TEM-1) of 6.30 and a pIC50 (cephalosporinase) of 6.00.

Work on `CC(=O)NN=C[C@@]1(C)[C@H](C(=O)O)N2C(=O)C[C@H]2S1(=O)=O` [Compound 38, sodium (2S, 3R, 5R)-3-formyl-3-methyl-7-oxo-4-thia-1-azabicyclo[3.2.0]heptane-2-carboxylate, 3^1-(acetylhydrazone), 4,4-dioxide] yielded a pIC50 (TEM-1) of 8.85 and a pIC50 (cephalosporinase) of 6.22.

`CCN1CCN(C(=O)N[C@@H](C(=O)N[C@@H]2C(=O)N3[C@@H]2SC(C)(C)[C@@H]3C(=O)O)c2ccccc2)C(=O)C1=O` [Piperacillin, piperacillin] was tested, and the MIC (C. freundii 2046E) was 100 µg/mL (≈ 193 µM), the MIC (E. coli OXA 3) was 3.13 µg/mL (≈ 6.05 µM) and the MIC (S. aureus 54K) was 12.5 µg/mL (≈ 24.2 µM). It also gave an MIC (E. coli SHV 1) of 50 µg/mL (≈ 96.6 µM), an MIC (E. cloacae E. 4009) of 100 µg/mL (≈ 193 µM) and an MIC (E. aerogenes) of 25 µg/mL (≈ 48.3 µM). It also gave an MIC (P. aeruginosa L 46007) of 100 µg/mL (≈ 193 µM), an MIC (P. vulgaris CT106) of 400 µg/mL (≈ 773 µM) and an MIC (E. coli OXA 1) of 25 µg/mL (≈ 48.3 µM). The MIC (E. coli TEM 3; [2]) was 100 µg/mL (≈ 193 µM), the MIC (E. aerogenes 41004; [2]) was 25 µg/mL (≈ 48.3 µM) and the MIC (E. cloacae P99; [2]) was 200 µg/mL (≈ 386 µM). For the same compound, the MIC (M. morganii 36014; [2]) was 50 µg/mL (≈ 96.6 µM), the MIC (K. pneumoniae 336L) was 200 µg/mL (≈ 386 µM) and the MIC (S. aureus 1628) was 400 µg/mL (≈ 773 µM). The MIC (S. marcescens 200L) was 100 µg/mL (≈ 193 µM), the MIC (A. calcoaceticus 553L) was greater than 400 µg/mL and the MIC (M. morganii 36010; [2]) was 200 µg/mL (≈ 386 µM). The MIC (K. pneumoniae CTX1; [2]) was greater than 40 µg/mL, the MIC (E. cloacae 40015) was 50 µg/mL (≈ 96.6 µM) and the MIC (E. coli TEM 7; [2]) was 100 µg/mL (≈ 193 µM). For the same compound, the MIC (E. coli TEM 1) was 400 µg/mL (≈ 773 µM), the MIC (E. cloacae 40011; [2]) was 50 µg/mL (≈ 96.6 µM) and the MIC (S. aureus 80K) was 12.5 µg/mL (≈ 24.2 µM).

Compound `C[C@]1(C=NO)[C@H](C(=O)O)N2C(=O)C[C@H]2S1(=O)=O` [Compound 5, sodium (2S, 3R, 5R)-3-formyl-3-methyl-7-oxo-4-thia-1-azabicyclo[3.2.0]heptane-2-carboxylate, 3^1-(hydroxyloxime), 4,4-dioxide] has a pIC50 (TEM-1) of 6.24 and a pIC50 (cephalosporinase) of 5.15.
